Source: article doi:10.1101/2022.05.04.490172v1 (biorxiv, 2022)
pKd: −log10 of the molar value.

What was measured:
[1] = tested on: BRN2 (POU3F2), luciferase reporter assay; assay: cells; conditions: for inhibition at 10 µM: read-out: % of Inhibition (Luciferase assay) / 10µM; for inhibition at 30 µM: read-out: % of Inhibition (Luciferase assay) / 30µM; for % of Inhibition (Luciferase assay) / 10µM / % of Inhibition (Luciferase assay) / 30µM: inhibitor
[2] = target: T1, BRN2 (POU3F2), purified BRN2^WT (Homo sapiens, UniProt P20265); assay: microscale thermophoresis; assay type: binding
T1 sequence (P20265 264-415): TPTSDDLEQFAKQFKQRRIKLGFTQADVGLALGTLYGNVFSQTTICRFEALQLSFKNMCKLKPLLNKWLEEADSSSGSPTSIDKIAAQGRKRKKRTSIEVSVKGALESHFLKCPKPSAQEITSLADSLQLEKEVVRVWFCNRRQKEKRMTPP

O=C(Oc1cccc(F)c1)c1cccc2ccccc12 [B-6]
inhibition at 10 µM [1]: -6.6% | inhibition at 30 µM [1]: -58%

O=C1c2ccccc2C(=O)N1c1nc(-c2ccccc2)cs1 [B-22]
inhibition at 10 µM [1]: -129% | inhibition at 30 µM [1]: -138%

Clc1ccc2cc(-c3csc(-c4ccc[nH]4)n3)oc2c1 [B18-94]
pKd [2]: 5.69

c1ccc2c(c1)C(=NNc1nc3ccccc3[nH]1)c1ccccc1-2 [B-40]
inhibition at 10 µM [1]: 93.2% | inhibition at 30 µM [1]: 98.8%

c1ccc(-c2nc(-c3cccnc3)no2)cc1 [B-27]
inhibition at 30 µM [1]: -166%

c1ccc([C@H]2COC(c3cccs3)=N2)cc1 [B-23]
inhibition at 10 µM [1]: -121% | inhibition at 30 µM [1]: -147%

c1ccc2c(c1)CC/C2=N/Nc1ccc2ccccc2n1 [B-39]
inhibition at 10 µM [1]: 99.1% | inhibition at 30 µM [1]: 99.9%

C[C@@H]1Cc2ccccc2N1C(=O)c1cccc2ccccc12 [B-20]
inhibition at 10 µM [1]: 15.7% | inhibition at 30 µM [1]: 35.5%

Cn1c(-c2ccc(-c3ccccc3)o2)nc2ccccc21 [B18]
inhibition at 10 µM [1]: 97.6% | inhibition at 30 µM [1]: 99.4%

Clc1cccc(-c2ccc(-c3nc4cc(Cl)ccc4[nH]3)o2)c1 [B-72]
inhibition at 10 µM [1]: -50.2% | inhibition at 30 µM [1]: 87.1%

COc1ccccc1/C=N\Nc1nc2ccccc2[nH]1 [B-61]
inhibition at 10 µM [1]: -172% | inhibition at 30 µM [1]: -70.4%

CC/C(=N/Nc1nc2ccccc2[nH]1)c1cccc(Cl)c1 [B-37]
inhibition at 10 µM [1]: 19.1% | inhibition at 30 µM [1]: 80.2%

Oc1c(Cl)cc(Cl)cc1/C=N/Nc1nc2ccccc2[nH]1 [B-31]
inhibition at 10 µM [1]: 22.6% | inhibition at 30 µM [1]: 12.7%

Cc1cc(C)c2c(c1)/C(=N/Nc1nc3ccccc3[nH]1)CCC2 [B-33]
inhibition at 10 µM [1]: 21.6% | inhibition at 30 µM [1]: 84.3%

c1ccc(-c2ccc(-c3nc4ccccc4[nH]3)o2)cc1 [B-66]
inhibition at 10 µM [1]: 11% | inhibition at 30 µM [1]: 48%

C/C(=N/Nc1nc2ccccc2[nH]1)c1ccccc1Cl [B-41]
inhibition at 10 µM [1]: 18.8% | inhibition at 30 µM [1]: 74.1%

C/C(=N/Nc1nc2ccccc2[nH]1)c1ccccc1O [B-42]
inhibition at 10 µM [1]: -3.59% | inhibition at 30 µM [1]: 66.8%

Oc1ccccc1/C=N\Nc1nc2ccccc2[nH]1 [B-3]
inhibition at 10 µM [1]: 69.2% | inhibition at 30 µM [1]: 75.5%

COc1ccc(CNc2ccc(C)cc2)c2ccccc12 [B-2]
inhibition at 10 µM [1]: 19.6% | inhibition at 30 µM [1]: 24.4%

Oc1c(Br)cc(Br)cc1/C=N/Nc1nc2ccccc2[nH]1 [B-53]
inhibition at 10 µM [1]: -127% | inhibition at 30 µM [1]: -80.2%

c1ccc(NCc2csc3ccccc23)cc1 [B-11]
inhibition at 10 µM [1]: -24.8% | inhibition at 30 µM [1]: -22.7%

Cc1ccc(-c2nc3cc(N)ccc3n2C)o1 [B-63]
inhibition at 10 µM [1]: 22% | inhibition at 30 µM [1]: 44%

Cc1ccccc1/C=N\Nc1nc2ccccc2[nH]1 [B-60]
inhibition at 10 µM [1]: -23.8% | inhibition at 30 µM [1]: 25.5%

c1ccc(-c2csc(-c3ccccn3)n2)cc1 [B-24]
inhibition at 10 µM [1]: -145% | inhibition at 30 µM [1]: -67.1%

Cn1c(N/N=C2/CCc3c(O)cccc32)nc2ccccc21 [B-36]
inhibition at 10 µM [1]: -39.4% | inhibition at 30 µM [1]: 28.6%

COc1ccc(CNc2ccccc2)c2ccccc12 [B-17]
inhibition at 10 µM [1]: 3.97% | inhibition at 30 µM [1]: 12.2%

Clc1cc(Br)ccc1-c1ccc(-c2nc3ccccc3[nH]2)o1 [B-70]
inhibition at 10 µM [1]: 88.1% | inhibition at 30 µM [1]: 91.7%

C/C(=N/Nc1nc2ccccc2[nH]1)c1ccc(F)cc1 [B-48]
inhibition at 10 µM [1]: -46.2% | inhibition at 30 µM [1]: -6.79%

Clc1ccc(-c2ccc(-c3nc4ccccc4[nH]3)o2)cc1Cl [B-67]
inhibition at 10 µM [1]: -99.2% | inhibition at 30 µM [1]: 74%

COc1ccc(O)c(/C=N/Nc2nc3ccccc3[nH]2)c1 [B-29]
inhibition at 10 µM [1]: -44.2% | inhibition at 30 µM [1]: 22.8%

Oc1ccc(Br)cc1/C=N/Nc1nc2ccccc2[nH]1 [B-52]
inhibition at 10 µM [1]: 27.1% | inhibition at 30 µM [1]: 21.3%

COc1ccc(/C=N\Nc2nc3ccccc3[nH]2)cc1O [B-65]
inhibition at 10 µM [1]: 31% | inhibition at 30 µM [1]: 51%

Cc1ccc(-c2nc3ccccc3n2C)o1 [B-55]
inhibition at 10 µM [1]: -120% | inhibition at 30 µM [1]: -88.1%

O=C(Nc1cc(Cl)cc(Cl)c1)c1ccccc1 [B-10]
% of Inhibition (Luciferase assay) / 10µM [1]: -70.87% | % of Inhibition (Luciferase assay) / 30µM [1]: 68.05%

CC/C(=N\Nc1nc2ccccc2[nH]1)c1ccc(O)cc1 [B-35]
inhibition at 10 µM [1]: 0.336% | inhibition at 30 µM [1]: 50.1%

Oc1cccc(/C=N/Nc2nc3ccccc3[nH]2)c1 [B-54]
inhibition at 10 µM [1]: -45.1% | inhibition at 30 µM [1]: -34.4%

Fc1ccc(Cl)cc1/C=N/Nc1nc2ccccc2s1 [B-4]
inhibition at 10 µM [1]: 19.5% | inhibition at 30 µM [1]: 71.4%

Cn1c(-c2ccc(CO)o2)nc2ccccc21 [B-56]
inhibition at 10 µM [1]: -114% | inhibition at 30 µM [1]: -134%

Cc1cc(C(=O)Nc2ccccc2)c2ccccc2n1 [B-1]
inhibition at 10 µM [1]: 14.6% | inhibition at 30 µM [1]: 1.27%

Oc1ccc(/C=N/Nc2nc3ccccc3[nH]2)c(O)c1 [B-49]
inhibition at 10 µM [1]: 46.1% | inhibition at 30 µM [1]: 70.8%

C/C(=N\Nc1nc2ccccc2[nH]1)c1ccccc1 [B-58]
inhibition at 30 µM [1]: -58%

Oc1ccc(/C=N/Nc2nc3ccccc3[nH]2)cc1 [B-50]
inhibition at 10 µM [1]: 66.3% | inhibition at 30 µM [1]: 72.1%

O=C(CSc1nc2ccccc2[nH]1)c1ccccc1 [B-15]
inhibition at 10 µM [1]: -5% | inhibition at 30 µM [1]: 9.16%

c1ccc2c(c1)CCC/C2=N\Nc1nc2ccccc2[nH]1 [B-32]
inhibition at 10 µM [1]: 32.4% | inhibition at 30 µM [1]: 77.2%

CC/C(=N\Nc1nc2ccccc2[nH]1)c1ccc(F)cc1 [B-34]
inhibition at 10 µM [1]: 33.1% | inhibition at 30 µM [1]: 80%

Oc1ccccc1/C=N/Nc1nc2ccccc2[nH]1 [B-21]
inhibition at 10 µM [1]: -1.45% | inhibition at 30 µM [1]: 24.8%

c1cc(-c2noc(C3CCCCC3)n2)ccn1 [B-28]
inhibition at 10 µM [1]: -139% | inhibition at 30 µM [1]: -180%

c1ccc(-c2ccc(N3CCOCC3)s2)cc1 [B-25]
inhibition at 10 µM [1]: -2.68% | inhibition at 30 µM [1]: 51.5%

Oc1ccc2ccccc2c1/C=N/Nc1nc2ccccc2[nH]1 [B-51]
inhibition at 10 µM [1]: -12.8% | inhibition at 30 µM [1]: 76.8%

O=C(Nc1ccc(F)cc1)c1ccccc1 [B-9]
inhibition at 10 µM [1]: -61.5% | inhibition at 30 µM [1]: -58.1%

Cc1cc(C(=O)Nc2cccc(Cl)c2)c2cc(F)ccc2n1 [B-14]
inhibition at 10 µM [1]: 41.6% | inhibition at 30 µM [1]: 32%

O=C(CSc1nc2ccccc2[nH]1)c1ccc(Cl)cc1 [B-16]
inhibition at 10 µM [1]: 20.8% | inhibition at 30 µM [1]: 44.7%

Clc1ccc(Cl)c(-c2ccc(-c3nc4ccccc4[nH]3)o2)c1 [B-71]
inhibition at 10 µM [1]: 46.2%

O=C(Nc1cc(Cl)cc(Cl)c1)c1ccccc1 [B-13]
% of Inhibition (Luciferase assay) / 10µM [1]: -8.507% | % of Inhibition (Luciferase assay) / 30µM [1]: 43.29%

C/C(=N\Nc1nc2ccccc2[nH]1)c1ccc2ccccc2c1O [B-45]
inhibition at 10 µM [1]: 77.2% | inhibition at 30 µM [1]: 91.8%

Cn1c(-c2ccco2)nc2ccccc21 [B-57]
inhibition at 10 µM [1]: -138% | inhibition at 30 µM [1]: -172%

Brc1ccc(-c2ccc(-c3nc4ccccc4[nH]3)o2)c(Br)c1 [B-69]
inhibition at 10 µM [1]: 90% | inhibition at 30 µM [1]: 94%

Cn1c(-c2ccco2)nc2cc(N)ccc21 [B-64]
inhibition at 10 µM [1]: 19% | inhibition at 30 µM [1]: 39%

Cc1ccc(-c2noc(-c3ccncc3)n2)cc1 [B-26]
inhibition at 10 µM [1]: -147% | inhibition at 30 µM [1]: -38.9%

Oc1ccc(/C=N/Nc2nc3ccccc3[nH]2)cc1O [B-44]
inhibition at 10 µM [1]: 0.0894% | inhibition at 30 µM [1]: 66.2%

Cc1cccc(C(=O)Oc2cccc3ccccc23)c1 [B-12]
inhibition at 10 µM [1]: 5.02% | inhibition at 30 µM [1]: -8.87%

Cc1ccccc1/C=N/Nc1nc2ccccc2[nH]1 [B-47]
inhibition at 10 µM [1]: -2.99% | inhibition at 30 µM [1]: 36.5%

Oc1ccc(/C=N\Nc2nc3ccccc3[nH]2)cc1Cl [B-62]
inhibition at 10 µM [1]: 88.2% | inhibition at 30 µM [1]: 91.6%

Oc1ccc(Cl)cc1/C=N/Nc1nc2ccccc2[nH]1 [B-30]
inhibition at 10 µM [1]: -6.38% | inhibition at 30 µM [1]: 28.1%

C/C(=N/Nc1nc2ccccc2[nH]1)c1ccc(C)cc1 [B-38]
inhibition at 10 µM [1]: 25.9% | inhibition at 30 µM [1]: 74.3%

Cc1ccc(NCc2c[nH]c3ccccc23)cc1 [B-19]
inhibition at 10 µM [1]: -4.93% | inhibition at 30 µM [1]: 62%

C/C(=N\Nc1nc2ccccc2[nH]1)c1ccc(O)cc1 [B-46]
inhibition at 10 µM [1]: 6.41% | inhibition at 30 µM [1]: 46.7%

Cc1cc(C(=O)Nc2cc(F)ccc2C)c2ccccc2n1 [B-5]
inhibition at 10 µM [1]: 4.75% | inhibition at 30 µM [1]: 9.07%

Oc1ccc(/C=N/Nc2nc3ccccc3[nH]2)c(O)c1O [B-43]
inhibition at 10 µM [1]: 12.5% | inhibition at 30 µM [1]: -1.16%

Oc1cccc(/C=N/Nc2nc3ccccc3[nH]2)c1O [B-59]
inhibition at 30 µM [1]: -145%

Clc1ccccc1-c1ccc(-c2nc3ccccc3[nH]2)o1 [B-68]
inhibition at 10 µM [1]: 54.9% | inhibition at 30 µM [1]: 94.4%
